Reference: US12350272B2, “Pyridopyrimidinone derivatives for use as AXL inhibitors” (OSCOTEC INC., priority 2018, dated 2025)
Counter-ions that a name gives are not always drawn. Like-named read-outs stand apart in the source and are kept apart here.

Tests used:
JAK2 = JAK2 (Homo sapiens (Human), UniProt O60674); experiment: Biochemical inhibition of JAK2; conditions: Table 2, range of IC50 value
MDA-MB-231 cells = experiment: Cell viability assay (ATPLite), MDA-MB-231; assay type: cell-based, human; conditions: 72 hour incubation
Description: (§1) Axl is a member of the TAM (TYRO3-Axl-MER) family of receptor tyrosine kinases, which, when activated, can increase tumor cell survival, proliferation, migration and invasion, angiogenesis, and tumor-host interactions. Upon GAS6 binding to Axl, Axl subsequently activates the signaling pathways downstream such as phosphoinositide 3-kinase (PI3K), RAt sarcoma (RAS), and extracellular signal regulated kinase (ERK).
(§2) This cell line was maintained with an Roswell Park Memorial Institute (RPMI) medium (HYCLONE™) containing 10% bovine calf serum (BCS; HYCLONE™) supplemented iron. The cells were seeded at 2×10^4 cells in 96-well culture plates, and serially diluted compounds were then added. After a 72 hour incubation period at 37° C., cell viability was measured using the ATPLite 1 step assay (PERKIN-ELMER™) that is based on the quantification of ATP from viable cells.

Hs578T cells = experiment: Cell viability assay (ATPLite), Hs578T; assay type: cell-based, human; conditions: 72 hour incubation
Description: as §1, §2

[1] = system: mouse 4T1 breast cancer cells; experiment: 4T1 spontaneous (orthotopic) metastasis model, combination with anti-PD-1 antibody; assay type: in vivo, BALB/c female mice
Description: A day before cell inoculation, fur on the right flank of BALB/C mice was depilated using hair trimmer. On the following day, the skin area around the injection site was disinfected by mildly swabbing with surgical spirit. To establish allografts, BALB/c female mice (7-weeks age) were implanted orthotopically into the mammary gland with 5×10^6 syngeneic 4T1 cells. Mice were sacrificed when average tumor volume reached 1500 mm^3.
Mice were randomized based on tumor volume (˜50 mm^3) and five mice were allocated per group. Tumor grafts were measured after approximately 2 days of cell inoculation when they become palpable. […] After treatment for 28 days, all mice were sacrificed. 4T1 lung metastasis was determined by counting the tumor nodules through H&E staining. 4T1 solid tumor on primary site was measured by a tumor 3D scanner, TM900 (Peria, Belgium). […] The metastatic nodule was measured by microscopic observation.
BALB/c female mice (7-weeks age) were implanted orthotopically into the mammary gland with 5×10^6 syngeneic 4T1 cells. […] Mice were sacrificed on day 28 and lung metastasis was evaluated by counting nodules.

[2] = system: mouse B16F10 melanoma cells; experiment: B16F10 lung in vivo metastasis model; conditions: oral 30 mg/kg/day
Procedure: (§4) Compounds of Formula (I) as obtained above were tested in metastasis models using mouse B16F10 melanoma and CT26-Luciferase colon cancer cells. […] Cell line was harvested by trypsinization when they reached 70-80% confluence. A day before cell inoculation, C57BL/6 mice were maintained under pathogen-free conditions according to SPF guideline (room temperature, 40-60% humidity) and housed in the ABMRC at the Yonsei University.
(§5) Mice were randomized, and three mice for B16F10 model and five mice for CT26 peritoneal metastasis model were allocated per group. Lung metastasis was measured after 14 days of cell inoculation. […] Vehicle for oral administration consists of 10% sodium sulphobutylether β-cyclodextrine (SBECD) in 50 mM citrate buffer (pH 3.0). Animals were monitored for mortality and clinical signs (such as illness and behavioral changes) daily throughout the study. In B16F10 model, after mice sacrificed, organs were fixed with 10% of Formalin solution for 1 day. The FFPE block was sliced by 4 μm thinness on coating slides for applying the H&E staining. Then, tumor nodule counting was calculated. CT26 metastasis was determined by measuring luminescence intensity in peritoneal cavity.

[3] = system: CT26-Luciferase colon cancer cells; experiment: CT26 peritoneal in vivo metastasis model; conditions: 30 mg/kg/day
Procedure: as §4, §5

Truncated human Axl = Truncated human Axl (Homo sapiens, UniProt P30530); experiment: Kinase inhibition assay (inhibition of enzymatic Axl kinase activity); assay type: biochemical
Sequence of Truncated human Axl (P30530 26-894 limits assumed): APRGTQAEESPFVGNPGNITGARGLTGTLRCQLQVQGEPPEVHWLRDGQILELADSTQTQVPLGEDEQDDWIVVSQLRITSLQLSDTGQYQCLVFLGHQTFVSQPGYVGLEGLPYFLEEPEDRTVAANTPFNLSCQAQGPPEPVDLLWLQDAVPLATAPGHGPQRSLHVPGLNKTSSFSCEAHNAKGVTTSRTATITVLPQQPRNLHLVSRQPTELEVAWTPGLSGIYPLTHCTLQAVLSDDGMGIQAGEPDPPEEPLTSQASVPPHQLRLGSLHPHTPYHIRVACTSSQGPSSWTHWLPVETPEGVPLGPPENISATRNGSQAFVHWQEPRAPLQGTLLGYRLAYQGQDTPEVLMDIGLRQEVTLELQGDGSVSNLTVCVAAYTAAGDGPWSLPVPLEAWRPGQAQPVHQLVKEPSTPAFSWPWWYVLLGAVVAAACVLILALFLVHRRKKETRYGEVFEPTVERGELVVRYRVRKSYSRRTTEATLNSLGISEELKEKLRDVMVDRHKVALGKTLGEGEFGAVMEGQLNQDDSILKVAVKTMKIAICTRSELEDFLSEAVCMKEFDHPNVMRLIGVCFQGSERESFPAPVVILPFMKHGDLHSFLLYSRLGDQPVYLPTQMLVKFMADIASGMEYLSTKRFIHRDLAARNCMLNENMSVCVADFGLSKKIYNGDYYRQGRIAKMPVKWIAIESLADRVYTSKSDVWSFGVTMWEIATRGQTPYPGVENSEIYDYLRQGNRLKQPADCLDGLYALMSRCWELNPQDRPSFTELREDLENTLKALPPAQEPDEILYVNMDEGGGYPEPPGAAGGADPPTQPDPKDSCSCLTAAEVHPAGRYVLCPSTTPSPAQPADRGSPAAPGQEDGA
Procedure: Compounds of Formula (I) as obtained above were assayed to measure their capacity to inhibit Axl kinase. Axl belongs to the recently identified TYRO-3, Axl, MERTK (TAM) receptor tyrosine kinase (RTK) family. […] Upon GAS6 binding, Axl homodimerizes and subsequently induces several downstream signaling pathways involved in cell proliferation, migration, invasion, anti-apoptosis, angiogenesis, metastasis, and therapeutic resistance. Upregulation of Axl has been reported in a wide variety of cancer cell lines as well as in cancer specimens from patients with breast cancer, acute leukemia, colorectal cancer, lung cancer, melanoma, ovarian cancer, or prostate cancer, among others.
Compounds of Formula (I) as obtained above were initially diluted to […] in 100% DMSO (CALBIOCHEM™) for storage and made into kinase buffer solution to create a compound concentration ranging from 1 uM and 10 uM. Serial dilutions of the compounds were dispensed into a 96-well plate (GREINER BIOSCIENCES™) at 6 μL each. Truncated human Axl (CARNA BIOSCIENCES™) were diluted in kinase buffer and added to the compound solutions and pre-incubated for 30 minutes at room temperature. […] The reaction mixture was incubated for 1 hour. Following the incubation, the stop solution made with EDTA, water, and Lance detection buffer ([…]™) were added (12 μL each) to stop phosphorylation.

[4] = system: MDA-MB-231 breast cancer cell line; experiment: Transwell migration assay; assay type: cell-based, human; conditions: even at 0.03 μM, compared to R428
Procedure: (§3) In order to test whether the compounds of Formula (I) show the effect on inhibition of metastasis, cell migratory and invasive behaviors analyzed using transwell and matrigel invasion assays in MDA-MB-231 breast cancer cell line. […] Cell migration was performed by the transwell assay (BD Biosciences, CA, USA). Briefly, 5×10^4 cells in serum-free RPMI-1640 were seeded on a membrane (8.0-μm pore size) inserted in the wells of a 24-well plate. RPMI-1640 containing 10% FBS was added to the lower chamber of each well. After 24 h, cells in the upper chamber were removed by cotton swab and the cells that had reached the underside of the membrane were fixed and stained with crystal violet (1% in methyl alcohol) for 10 min. The cells located on the underside of the filter (5 fields/filter) were counted. The cell invasion assay was carried out similarly, except that the matrigel (BD Biosciences, CA, USA) was added to each well 6 h before cells were seeded on the membrane. After 48 h, matrigel and any remaining cells in the upper chamber were removed by cotton swabs. Cells on the lower surface of the membrane were fixed and stained as described above. Data are representative of results from three independent fields of stained membrane.

[5] = system: MDA-MB-231 breast cancer cell line; experiment: Matrigel invasion assay; assay type: cell-based, human; conditions: even at 0.03 μM, compared to R428
Procedure: as §3

[6] = system: mouse breast 4T1 cancer cells; experiment: Anti-tumor activity in breast 4T1 syngeneic in vivo cancer model; conditions: BALB/C mice
Procedure: A day before cell inoculation, fur on the right flank of BALB/C mice was depilated using hair trimmer. On the following day, the skin area around the injection site was disinfected by mildly swabbing with surgical spirit. To establish allografts, cells were suspended in serum-free media and mixed 1:1 with matrigel to obtain 1×10^6 cells/100 μL. […] Mice were randomized based on tumor volume and six mice were allocated per group. Tumor grafts were measured after approximately 5 days of cell inoculation when they become palpable. […] Tumor growth inhibition (TGI) was calculated as follows: % TGI=[1−(Treatment TVFinal−Treatment TVinitial)/(Control TVFinal−Control TVInitial)]*100

4T1 = experiment: Anti-tumor activity in immunodeficient mice; assay type: in vivo; conditions: 30 mg/kg/day
[7] = Table 2, range of IC50 value, read-out: Axl
[8] = day 15, oral QD 30 mg/kg/day for 14 days

Sequence of JAK2 (O60674 whole entry, species assumed): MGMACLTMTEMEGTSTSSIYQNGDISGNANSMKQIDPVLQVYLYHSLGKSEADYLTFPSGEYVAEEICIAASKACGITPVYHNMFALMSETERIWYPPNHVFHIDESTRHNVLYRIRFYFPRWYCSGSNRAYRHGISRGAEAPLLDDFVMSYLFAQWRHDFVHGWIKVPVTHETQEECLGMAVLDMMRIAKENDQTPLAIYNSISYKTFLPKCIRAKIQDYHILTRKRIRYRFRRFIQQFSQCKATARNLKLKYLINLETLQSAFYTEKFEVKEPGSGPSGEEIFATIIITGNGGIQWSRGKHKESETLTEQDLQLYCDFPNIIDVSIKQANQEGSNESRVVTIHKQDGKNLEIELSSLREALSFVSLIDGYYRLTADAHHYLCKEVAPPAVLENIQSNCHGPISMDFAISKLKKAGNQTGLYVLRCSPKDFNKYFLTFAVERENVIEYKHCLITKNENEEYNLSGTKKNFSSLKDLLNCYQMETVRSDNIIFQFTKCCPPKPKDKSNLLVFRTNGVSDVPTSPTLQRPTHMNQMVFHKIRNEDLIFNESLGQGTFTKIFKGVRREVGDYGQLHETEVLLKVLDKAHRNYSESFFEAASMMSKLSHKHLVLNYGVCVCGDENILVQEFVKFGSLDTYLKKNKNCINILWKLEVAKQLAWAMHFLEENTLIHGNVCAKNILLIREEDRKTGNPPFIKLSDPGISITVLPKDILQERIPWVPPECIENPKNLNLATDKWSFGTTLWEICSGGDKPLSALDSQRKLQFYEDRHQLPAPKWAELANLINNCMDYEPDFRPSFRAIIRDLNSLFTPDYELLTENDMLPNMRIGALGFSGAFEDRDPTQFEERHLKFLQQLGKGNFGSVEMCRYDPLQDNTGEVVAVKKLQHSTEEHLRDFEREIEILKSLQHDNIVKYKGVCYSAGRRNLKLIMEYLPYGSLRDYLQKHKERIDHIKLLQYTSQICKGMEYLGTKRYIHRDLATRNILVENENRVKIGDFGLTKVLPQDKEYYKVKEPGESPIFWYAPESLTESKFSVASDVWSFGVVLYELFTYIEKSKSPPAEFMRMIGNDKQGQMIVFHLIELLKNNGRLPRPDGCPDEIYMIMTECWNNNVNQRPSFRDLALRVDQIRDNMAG

| IC50 (JAK2) | GI50 (MDA-MB-231 cells; Homo sapiens, MDA-MB-231, 72 h) | SMILES | GI50 (Hs578T cells; Homo sapiens, Hs-578T, 72 h) | IC50 (Truncated human Axl; Table 1, read-out: Axl (IC50)) | IC50 (Truncated human Axl; [7]) | other results |
| --- | --- | --- | --- | --- | --- | --- |
| 11 to 100 nM | 3100 to 10000 nM | CCc1nc(C(N)=O)c(Nc2ccc(N3CCC(N4CCN(C)CC4)CC3)c(OC)c2)nc1NC1CCOCC1 [ASP2215, gilteritinib, reference compound] | 3100 to 10000 nM |  |  |  |
| 101 to 1000 nM | 11000 to 30000 nM | Nc1nc(Nc2ccc3c(c2)CC[C@@H](N2CCCC2)CC3)nn1-c1cc2c(nn1)-c1ccccc1CCC2 [Compound R428, reference compound] | 3100 to 10000 nM |  |  |  |

Further lines, the molecule ahead of its results:

| SMILES | IC50 (JAK2) | GI50 (MDA-MB-231 cells; Homo sapiens, MDA-MB-231, 72 h) | GI50 (Hs578T cells; Homo sapiens, Hs-578T, 72 h) | IC50 (Truncated human Axl; Table 1, read-out: Axl (IC50)) | IC50 (Truncated human Axl; [7]) | other results |
| --- | --- | --- | --- | --- | --- | --- |
| CN1CCC(Nc2nc(Nc3ccc(Oc4ccccc4)cc3)c3c(=O)[nH]cc(Br)c3n2)CC1.Cl [Compound 226, 8-bromo-2-((1-methylpiperidin-4-yl)amino)-4-((4-phenoxyphenyl)amino)pyrido[4,3-d]pyrimidin-5(6H)-one hydrochloride] | 101 to 1000 nM |  |  |  |  | total metastatic burden and number of larger metastases (medium+large, ≥5 mm diameter) ([1]; 30 mg/kg/day, 4 weeks): significantly suppressed; tumor growth on primary site (mammary fat pad) ([1]; 4 weeks treatment, no different efficacy between groups): inhibition of tumor growth; metastasis into the lung (tumor nodules) ([1]; day 28, compound 226 30 mg/kg/day and/or anti-PD-1 antibody twice/week for 4 weeks): significantly decreased; tolerability (clinical signs) ([2]; B16F10 lung and CT-26 peritoneal metastasis models): well tolerated; lung metastasis in gross lung specimens ([2]; B16F10 model): dramatically inhibited lung metastasis; tumor nodules ([2]; B16F10 model): no tumor nodules; luminescence intensity in the peritoneal cavity ([3]; CT-26 peritoneal metastasis model): drastically reduced; survival of mice ([3]; QD, vehicle mice started to die from day 9): alive during the treatment period |
| CN1CCC(Nc2nc(Nc3ccc(OC4CCCCC4)cc3)c3c(=O)[nH]cc(Br)c3n2)CC1 [Compound 233, 8-bromo-4-((4-(cyclohexyloxy)phenyl)amino)-2-((1-methylpiperidin-4-yl)amino)pyrido[4,3-d]pyrimidin-5(6H)-one hydrochloride] | 101 to 1000 nM |  |  | 101 to 1000 nM | 101 to 1000 nM | GI50 (MDA-MB-231 cells; hydrochloride): 3100 to 10000 nM; GI50 (Hs578T cells; hydrochloride): 1100 to 3000 nM |
| CN1CCC(Nc2nc(Nc3ccc(Oc4cccc(F)c4)cc3)c3c(=O)[nH]cc(Br)c3n2)CC1.Cl [Compound 238, 8-bromo-4-((4-(3-fluorophenoxy)phenyl)amino)-2-((1-methylpiperidin-4-yl)amino)pyrido[4,3-d]pyrimidin-5(6H)-one hydrochloride] | 101 to 1000 nM |  |  | 11 to 100 nM | 11 to 100 nM | inhibition of kinase activity of Axl (Truncated human Axl; result in words): strong inhibition; GI50 (MDA-MB-231 cells; hydrochloride): 1100 to 3000 nM; GI50 (Hs578T cells; hydrochloride): 1100 to 3000 nM; migration of MDA-MB-231 cells [4]: significantly inhibited; invasion of MDA-MB-231 cells [5]: significantly inhibited; average tumor volume [6, 8]: 669±60 mm^3; tumor growth inhibition (TGI) [6, 8]: 59%; tolerability (clinical signs, body weight) ([6]; oral QD 30 mg/kg/day): well tolerated; anti-tumor effect (4T1): no anti-tumor effect |
| CN1CCC(Nc2nc(Nc3ccc(Oc4cccc(F)c4)cc3)c3c(=O)[nH]cc(Br)c3n2)CC1 [Compound 240, 8-bromo-4-((4-(3-fluorophenoxy)phenyl)amino)-2-((1-methylpiperidin-4-yl)amino)pyrido[4,3-d]pyrimidin-5(6H)-one] | 101 to 1000 nM |  |  | 11 to 100 nM | 11 to 100 nM | GI50 (MDA-MB-231 cells): 3100 to 10000 nM; GI50 (Hs578T cells): 3100 to 10000 nM |
| CN1CCC(Nc2nc(Nc3ccc(Oc4ccc(F)c(F)c4)cc3)c3c(=O)[nH]cc(Br)c3n2)CC1 [Compound 241, 8-bromo-4-((4-(3,4-difluorophenoxy)phenyl)amino)-2-((1-methylpiperidin-4-yl)amino)pyrido[4,3-d]pyrimidin-5(6H)-one hydrochloride] | 1000 to 10000 nM | 3100 to 10000 nM | 3100 to 10000 nM | 11 to 100 nM | 11 to 100 nM |  |
